Measurements from US20140343000A1 (priority 2011, published 2014).
pEC50: −log10 of the molar value.

System: recombinant NL4-3 virus (Renilla luciferase in nef, Gag P373S; NLRluc) in MT-2 cells
Test: whole plant or invertebrate
Assay type: cell-based, HIV
Details: Renilla, NL43, luciferase activity in cells infected for 4-5 days with NLRluc recombinants, serial dilutions of inhibitor; class symbols (key in Table 1); read-out: EC50
In short: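 MT-2 cells in RPMI 1640 with 10% heat-inactivated FBS were infected with the reporter virus, made by transfecting the proviral clone into 293T cells, and cultured 4-5 days with serial inhibitor dilutions. Antiviral activity was quantified from Renilla luciferase activity measured in lysed cells.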

SMILES | pEC50
C=C(C)[C@@H]1CC[C@]2(NCCS(=O)(=O)CCO)CC[C@]3(C)[C@H](CC[C@@H]4[C@@]5(C)CC=C(c6ccc(C(=O)O)cc6)C(C)(C)[C@@H]5CC[C@]43C)[C@@H]12 [Example 135, 4-((1R,3aS,5aR,5bR,7aR,11aS,11bR,13aR,13bR)-3a-(2-(2-hydroxyethylsulfonyl)ethylamino)-5a,5b,8,8,11a-pentamethyl-1-(prop-1-en-2-yl)-2,3,3a,4,5,5a,5b,6,7,7a,8,11,11a,11b,12,13,13a,13b-octadecahydro-1H-cyclopenta[a]chrysen-9-yl)benzoic acid] | > 7.00
C=C(C)[C@@H]1CC[C@]2(NCCS(C)(=O)=O)CC[C@]3(C)[C@H](CC[C@@H]4[C@@]5(C)CC=C(c6ccc(C(=O)O)cc6)C(C)(C)[C@@H]5CC[C@]43C)[C@@H]12 [Example 136, 4-((1R,3aS,5aR,5bR,7aR,11aS,11bR,13aR,13bR)-5a,5b,8,8,11a-pentamethyl-3a-(2-(methylsulfonyl)ethylamino)-1-(prop-1-en-2-yl)-2,3,3a,4,5,5a,5b,6,7,7a,8,11,11a,11b,12,13,13a,13b-octadecahydro-1H-cyclopenta[a]chrysen-9-yl)benzoic acid] | > 7.00
C=C(C)[C@@H]1CC[C@]2(NCCN3CCS(=O)(=O)CC3)CC[C@]3(C)[C@H](CC[C@@H]4[C@@]5(C)CC=C(c6ccc(C(=O)O)cc6)C(C)(C)[C@@H]5CC[C@]43C)[C@@H]12 [Example 137, 4-((1R,3aS,5aR,5bR,7aR,11aS,11bR,13aR,13bR)-3a-((2-(1,1-dioxido-4-thiomorpholinyl)ethyl)amino)-1-isopropenyl-5a,5b,8,8,11a-pentamethyl-2,3,3a,4,5,5a,5b,6,7,7a,8,11,11a,11b,12,13,13a,13b-octadecahydro-1H-cyclopenta[a]chrysen-9-yl)benzoic acid] | > 7.00
C=C(C)[C@@H]1CC[C@]2(NCCNC(=O)OC(C)(C)C)CC[C@]3(C)[C@H](CC[C@@H]4[C@@]5(C)CC=C(c6ccc(C(=O)O)cc6)C(C)(C)[C@@H]5CC[C@]43C)[C@@H]12 [Example 138, 4-((1R,3aS,5aR,5bR,7aR,11aS,11bR,13aR,13bR)-3a-(2-(tert-butoxycarbonylamino)ethylamino)-5a,5b,8,8,11a-pentamethyl-1-(prop-1-en-2-yl)-2,3,3a,4,5,5a,5b,6,7,7a,8,11,11a,11b,12,13,13a,13b-octadecahydro-1H-cyclopenta[a]chrysen-9-yl)benzoic acid] | > 7.00
C=C(C)[C@@H]1CC[C@]2(NCCN)CC[C@]3(C)[C@H](CC[C@@H]4[C@@]5(C)CC=C(c6ccc(C(=O)O)cc6)C(C)(C)[C@@H]5CC[C@]43C)[C@@H]12 [Example 139, 4-((1R,3aS,5aR,5bR,7aR,11aS,11bR,13aR,13bR)-3a-(2-aminoethylamino)-5a,5b,8,8,11a-pentamethyl-1-(prop-1-en-2-yl)-2,3,3a,4,5,5a,5b,6,7,7a,8,11,11a,11b,12,13,13a,13b-octadecahydro-1H-cyclopenta[a]chrysen-9-yl)benzoic acid] | > 7.00
C=C(C)[C@@H]1CC[C@]2(NCCN(CCC(=O)O)CCC(=O)O)CC[C@]3(C)[C@H](CC[C@@H]4[C@@]5(C)CC=C(c6ccc(C(=O)O)cc6)C(C)(C)[C@@H]5CC[C@]43C)[C@@H]12 [Example 141, 3,3′-(2-((1R,3aS,5aR,5bR,7aR,11aS,11bR,13aR,13bR)-9-(4-carboxyphenyl)-5a,5b,8,8,11a-pentamethyl-1-(prop-1-en-2-yl)-2,3,3a,4,5,5a,5b,6,7,7a,8,11,11a,11b,12,13,13a,13b-octadecahydro-1H-cyclopenta[a]chrysen-3a-ylamino)ethylazanediyl)dipropanoic acid] | > 7.00
C=C(C)[C@@H]1CC[C@]2(NCCNCCC(=O)N(C)C)CC[C@]3(C)[C@H](CC[C@@H]4[C@@]5(C)CC=C(c6ccc(C(=O)O)cc6)C(C)(C)[C@@H]5CC[C@]43C)[C@@H]12 [Example 142, 4-((1R,3aS,5aR,5bR,7aR,11aS,11bR,13aR,13bR)-3a-(2-(3-(dimethylamino)-3-oxopropylamino)ethylamino)-5a,5b,8,8,11a-pentamethyl-1-(prop-1-en-2-yl)-2,3,3a,4,5,5a,5b,6,7,7a,8,11,11a,11b,12,13,13a,13b-octadecahydro-1H-cyclopenta[a]chrysen-9-yl)benzoic acid] | > 7.00
C=C(C)[C@@H]1CC[C@]2(NCCCNC(=O)OC(C)(C)C)CC[C@]3(C)[C@H](CC[C@@H]4[C@@]5(C)CC=C(c6ccc(C(=O)O)cc6)C(C)(C)[C@@H]5CC[C@]43C)[C@@H]12 [Example 143, 4-((1R,3aS,5aR,5bR,7aR,11aS,11bR,13aR,13bR)-3a-(3-(tert-butoxycarbonylamino)propylamino)-5a,5b,8,8,11a-pentamethyl-1-(prop-1-en-2-yl)-2,3,3a,4,5,5a,5b,6,7,7a,8,11,11a,11b,12,13,13a,13b-octadecahydro-1H-cyclopenta[a]chrysen-9-yl)benzoic acid] | > 7.00
C=C(C)[C@@H]1CC[C@]2(NCCCN3CCS(=O)(=O)CC3)CC[C@]3(C)[C@H](CC[C@@H]4[C@@]5(C)CC=C(c6ccc(C(=O)O)cc6)C(C)(C)[C@@H]5CC[C@]43C)[C@@H]12 [Example 144, 4-[(1R,3aS,5aR,5bR,7aR,11aS,11bR,13aR,13bR)-3a-[[3-(1,1-dioxido-4-thiomorpholinyl)propyl]amino]-2,3,3a,4,5,5a,5b,6,7,7a,8,11,11a,11b,12,13,13a,13b-octadecahydro-5a,5b,8,8,11a-pentamethyl-1-(1-methylethenyl)-1H-cyclopenta[a]chrysen-9-yl]-benzoic acid] | > 7.00
C=C(C)[C@@H]1CC[C@]2(NCC(=O)N(C)C)CC[C@]3(C)[C@H](CC[C@@H]4[C@@]5(C)CC=C(c6ccc(C(=O)O)cc6)C(C)(C)[C@@H]5CC[C@]43C)[C@@H]12 [Example 145, 4-((1R,3aS,5aR,5bR,7aR,11aS,11bR,13aR,13bR)-3a-(2-(dimethylamino)-2-oxoethylamino)-5a,5b,8,8,11a-pentamethyl-1-(prop-1-en-2-yl)-2,3,3a,4,5,5a,5b,6,7,7a,8,11,11a,11b,12,13,13a,13b-octadecahydro-1H-cyclopenta[a]chrysen-9-yl)benzoic acid] | > 7.00
C=C(C)[C@@H]1CC[C@]2(NCCN3CCCC3=O)CC[C@]3(C)[C@H](CC[C@@H]4[C@@]5(C)CC=C(c6ccc(C(=O)O)cc6)C(C)(C)[C@@H]5CC[C@]43C)[C@@H]12 [Example 146, 4-((1R,3aS,5aR,5bR,7aR,11aS,11bR,13aR,13bR)-5a,5b,8,8,11a-pentamethyl-3a-(2-(2-oxopyrrolidin-1-yl)ethylamino)-1-(prop-1-en-2-yl)-2,3,3a,4,5,5a,5b,6,7,7a,8,11,11a,11b,12,13,13a,13b-octadecahydro-1H-cyclopenta[a]chrysen-9-yl)benzoic acid] | > 7.00
C=C(C)[C@@H]1CC[C@]2(NCC(=O)N3CCCC3)CC[C@]3(C)[C@H](CC[C@@H]4[C@@]5(C)CC=C(c6ccc(C(=O)O)cc6)C(C)(C)[C@@H]5CC[C@]43C)[C@@H]12 [Example 147, 4-((1R,3aS,5aR,5bR,7aR,11aS,11bR,13aR,13bR)-5a,5b,8,8,11a-pentamethyl-3a-(2-oxo-2-(pyrrolidin-1-yl)ethylamino)-1-(prop-1-en-2-yl)-2,3,3a,4,5,5a,5b,6,7,7a,8,11,11a,11b,12,13,13a,13b-octadecahydro-1H-cyclopenta[a]chrysen-9-yl)benzoic acid] | > 7.00
C=C(C)[C@@H]1CC[C@]2(NCC(=O)NC)CC[C@]3(C)[C@H](CC[C@@H]4[C@@]5(C)CC=C(c6ccc(C(=O)O)cc6)C(C)(C)[C@@H]5CC[C@]43C)[C@@H]12 [Example 148, 4-((1R,3aS,5aR,5bR,7aR,11aS,11bR,13aR,13bR)-5a,5b,8,8,11a-pentamethyl-3a-(2-(methylamino)-2-oxoethylamino)-1-(prop-1-en-2-yl)-2,3,3a,4,5,5a,5b,6,7,7a,8,11,11a,11b,12,13,13a,13b-octadecahydro-1H-cyclopenta[a]chrysen-9-yl)benzoic acid] | > 7.00

Same assay, conditions: Renilla, NL43, luciferase activity in cells infected for 4-5 days with NLRluc recombinants, serial dilutions of inhibitor; numeric values; read-out: EC50

SMILES | pEC50
C=C(C)[C@@H]1CC[C@]2(NCc3ccc(F)cn3)CC[C@]3(C)[C@H](CC[C@@H]4[C@@]5(C)CC=C(c6ccc(C(=O)O)cc6)C(C)(C)[C@@H]5CC[C@]43C)[C@@H]12 [Example 133, 4-((1R,3aS,5aR,5bR,7aR,11aS,11bR,13aR,13bR)-3a-((5-fluoropyridin-2-yl)methylamino)-5a,5b,8,8,11a-pentamethyl-1-(prop-1-en-2-yl)-2,3,3a,4,5,5a,5b,6,7,7a,8,11,11a,11b,12,13,13a,13b-octadecahydro-1H-cyclopenta[a]chrysen-9-yl)benzoic acid] | 7.52
C=C(C)[C@@H]1CC[C@]2(NCc3ncccc3C(F)(F)F)CC[C@]3(C)[C@H](CC[C@@H]4[C@@]5(C)CC=C(c6ccc(C(=O)O)cc6)C(C)(C)[C@@H]5CC[C@]43C)[C@@H]12 [Example 134, 4-((1R,3aS,5aR,5bR,7aR,11aS,11bR,13aR,13bR)-5a,5b,8,8,11a-pentamethyl-1-(prop-1-en-2-yl)-3a-((3-(trifluoromethyl)pyridin-2-yl)methylamino)-2,3,3a,4,5,5a,5b,6,7,7a,8,11,11a,11b,12,13,13a,13b-octadecahydro-1H-cyclopenta[a]chrysen-9-yl)benzoic acid] | 7.00
C=C(C)[C@@H]1CC[C@]2(NCCNCCC(=O)O)CC[C@]3(C)[C@H](CC[C@@H]4[C@@]5(C)CC=C(c6ccc(C(=O)O)cc6)C(C)(C)[C@@H]5CC[C@]43C)[C@@H]12 [Example 140, 4-((1R,3aS,5aR,5bR,7aR,11aS,11bR,13aR,13bR)-3a-(2-(2-carboxyethylamino)ethylamino)-5a,5b,8,8,11a-pentamethyl-1-(prop-1-en-2-yl)-2,3,3a,4,5,5a,5b,6,7,7a,8,11,11a,11b,12,13,13a,13b-octadecahydro-1H-cyclopenta[a]chrysen-9-yl)benzoic acid] | 8.05
